In patent US11542233B2, “Compounds, compositions and methods of use” (Aquinnah Pharmaceuticals, Inc., priority 2016, dated 2023):

The molecules below were run on TDP-43 aggregation in PC12 cells stably expressing GFP-tagged mutant TDP-43 (TDP-43^Q33IK::eGFP) (assay: In vitro efficacy assay: inhibition of TDP-43 inclusions, concentration-response, fluorescence microscopy). Details: Rattus norvegicus, PC-12, PC12 cells, 1 hour pre-treatment, 15 μM sodium arsenite for 23 hours, 10-point dose response curve.
Format: cell-based
Procedure: Exemplary compounds of the invention were evaluated for efficacy in inhibiting TDP-43 inclusions using a concentration-response assay. Briefly, PC12 cells stably expressing a GFP-tagged mutant form of TDP-43 (TDP-43^Q33IK::eGFP) were pre-treated for 1 hour with exemplary compounds and stressed with 15 μM sodium arsenite for 23 hours to induce TDP-43 aggregation. The inhibitory effect on TDP-43 aggregation was measured using fluorescence microscopy. The ratio of cells with TDP-43 aggregates was calculated based on the total number of cells with detectable GFP expression. In the table, “A” indicates an IC50 of less than 100 nM, “B” indicates an IC50 range from 100 nM to 500 nM; “C” indicates an IC50 range from 500 nM to 2 μM; and “D” indicates an IC50 greater than 2 μM.
CCN(C(=O)c1cc2ncccc2[nH]1)[C@H]1CCC[C@@H](NCc2cc(C(C)C)no2)C1 [Compound 470] was tested, and the IC50 was less than 100 nM. CCN(C(=O)c1cc2ccccc2[nH]1)[C@H]1CCC[C@@H](NCc2cc3ccccc3s2)C1 [Compound 450] was tested, and the IC50 was less than 100 nM. Molecule CCN(C(=O)c1cc2ncccc2[nH]1)[C@H]1CCC[C@@H](NCc2cccc(N=[N+]=[N-])c2)C1 [Compound 406, N-((1S,3R)-3-((3-azidobenzyl)amino)cyclohexyl)-N-ethyl-1H-pyrrolo[3,2-b]pyridine-2-carboxamide] has an IC50 of less than 100 nM. CCN(C(=O)c1nc2ccccc2[nH]1)[C@H]1CCC[C@@H](NCc2cc3ccccc3s2)C1 [Compound 490] showed an IC50 of less than 100 nM. Molecule [2H]C([2H])(N[C@@H]1CCC[C@H](N(CC)C(=O)c2nc3ccccc3[nH]2)C1)c1ccccc1 [Compound 522, N-ethyl-N-((1S,3R)-3-((phenylmethyl-d2)amino)cyclohexyl)-1H-benzo[d]imidazole-2-carboxamide] has an IC50 of less than 100 nM. For CCN(C(=O)c1cc2c(OC)cccc2[nH]1)[C@H]1CCC[C@@H](NCc2oc3ccccc3c2C#N)C1 [Compound 498], the IC50 was less than 100 nM. Molecule O=C(c1cc2ccccc2[nH]1)N(CC(F)(F)F)[C@H]1CCC[C@H](NCC2CCOCC2)C1 [Compound 182] has an IC50 of 500 to 2000 nM. In the case of CCN(C(=O)c1cc2c([nH]1)CC(C)(C)OC2)[C@H]1CCC[C@@H](NCc2ccccc2)C1 [Compound 502, N-((1S,3R)-3-(benzylamino)cyclohexyl)-N-ethyl-6,6-dimethyl-1,4,6,7-tetrahydropyrano[4,3-b]pyrrole-2-carboxamide], the IC50 is reported as 500 to 2000 nM. CCN(C(=O)c1cc2c([nH]1)CCOC2)[C@H]1CCC[C@@H](NCc2ccccc2)C1 [Compound 503] showed an IC50 of 100 to 500 nM. Molecule O=C(c1cc2ccccc2[nH]1)N(CC(F)(F)F)[C@H]1CCC[C@@H](NCC2CCOCC2)C1 [Compound 183] has an IC50 greater than 2000 nM. For CCN(C(=O)c1cc2ccccc2[nH]1)[C@H]1CCC[C@H](NCc2cccc(F)c2)C1 [Compound 107, N-ethyl-N-((1S,3S)-3-((3-fluorobenzyl)amino)cyclohexyl)-1H-indole-2-carboxamide], the IC50 was 500 to 2000 nM. Molecule COc1ccc(C(C)(C)N[C@@H]2CCC[C@H](N(CC(F)(F)F)C(=O)c3cc4ncccc4[nH]3)C2)cc1 [Compound 424, N-((1S,3R)-3-((2-(4-methoxyphenyl)propan-2-yl)amino)cyclohexyl)-N-(2,2,2-trifluoroethyl)-1H-pyrrolo[3,2-b]pyridine-2-carboxamide] has an IC50 of less than 100 nM. C#CCOc1ccc(CN[C@@H]2CCC[C@H](N(CC)C(=O)c3nc4cc([N+](=O)[O-])ccc4[nH]3)C2)cc1 [Compound 561, N-ethyl-5-nitro-N-((1S,3R)-3-((4-(prop-2-yn-1-yloxy)benzyl)amino)cyclohexyl)-1H-benzo[d]imidazole-2-carboxamide] was tested, and the IC50 was less than 100 nM. For C#CCOc1ccc(CN[C@@H]2CCC[C@H](N(CC)C(=O)c3nc4cc(N)ccc4[nH]3)C2)cc1 [Compound 562, 5-amino-N-ethyl-N-((1S,3R)-3-((4-(prop-2-yn-1-yloxy)benzyl)amino)cyclohexyl)-1H-benzo[d]imidazole-2-carboxamide], the IC50 was 500 to 2000 nM. In the case of CCN(C(=O)c1ccccn1)[C@H]1CCC[C@@H](NCc2ccccc2)C1 [Compound 404], the IC50 is reported as greater than 2000 nM. CCN(C(=O)c1nc2cc(F)ccc2[nH]1)[C@@]1(C)CCC[C@@H](NCc2ccccc2)C1 [Compound 556, N-((1S,3R)-3-(benzylamino)-1-methylcyclohexyl)-N-ethyl-5-fluoro-1H-benzo[d]imidazole-2-carboxamide] showed an IC50 greater than 2000 nM. CCN(C(=O)c1nc2ccccc2[nH]1)[C@H]1CCC[C@@H](NCc2cccc(F)c2)C1 [Compound 480] gave an IC50 of less than 100 nM. CCN(C(=O)c1cc2cc(C#N)ccc2[nH]1)[C@H]1CCC[C@@H](NCc2ccccc2)C1 [Compound 538, N-((1S,3R)-3-(benzylamino)cyclohexyl)-5-cyano-N-ethyl-1H-indole-2-carboxamide] showed an IC50 of less than 100 nM. Work on C#CCOc1cccc(CN[C@@H]2CCC[C@H](N(CC)C(=O)c3nc4cc([N+](=O)[O-])ccc4[nH]3)C2)c1 [Compound 563] yielded an IC50 of less than 100 nM.
